Assay results: US10035760B2, “Inhibitors of human immunodeficiency virus replication” (priority 2013, dated 2018)
Read-outs that look alike come from different tables or passages of the source.

System: recombinant NL4-3 virus (Renilla luciferase) in MT-2 cells
Test: HIV cell culture assay (antiviral activity, luciferase readout in infected MT-2 cells)
Assay type: cell-based
Conditions: Renilla
How it was run: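 Nef-deleted NL4-3 carrying Renilla luciferase, produced by 293T transfection, used to infect MT-2 cells for 4–5 days with serial compound dilutions. Live-cell luciferase signal read as infection marker; EC50 from exponential median-effect equation.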

[1] = NL43, read-out: Activity, antiviral activity class, recombinant NL4-3 Renilla luciferase virus in MT-2 cells
[2] = NL43, recombinant NL4-3 Renilla luciferase virus in MT-2 cells

| SMILES | EC50 [1] | EC50 [2] |
| --- | --- | --- |
| Cc1ccccc1S(=O)(=O)NC(=O)N[C@@H](Cc1ccccc1)C(=O)N1CCCc2ccccc21 [Example 170, (S)—N-((1-(3,4-dihydroquinolin-1(2H)-yl)-1-oxo-3-phenylpropan-2-yl)carbamoyl)-2-methylbenzenesulfonamide] | 1000 to 10000 nM | – |
| COc1ccc2c(c1)CCCN2C(=O)[C@H](Cc1ccccc1)NC(=O)NS(=O)(=O)c1ccccc1C [Example 171, (S)—N-((1-(6-methoxy-3,4-dihydroquinolin-1(2H)-yl)-1-oxo-3-phenylpropan-2-yl)carbamoyl)-2-methylbenzenesulfonamide] | 100 to 1000 nM | – |
| COc1ccc2c(c1)OCCN2C(=O)[C@H](Cc1ccccc1)NC(=O)NS(=O)(=O)c1ccccc1C [Example 172, (S)—N-((1-(7-methoxy-2H-benzo[b][1,4]oxazin-4(3H)-yl)-1-oxo-3-phenylpropan-2-yl)carbamoyl)-2-methylbenzenesulfonamide] | 100 to 1000 nM | 270 nM |
| Cc1ccccc1S(=O)(=O)NC(=O)N[C@@H](Cc1ccccc1)C(=O)N1CCCc2cc(O)ccc21 [Example 173, (S)—N-((1-(6-hydroxy-3,4-dihydroquinolin-1 (2H)-yl)-1-oxo-3-phenylpropan-2-yl)carbamoyl)-2-methylbenzenesulfonamide] | 100 to 1000 nM | – |
| Cc1ccccc1S(=O)(=O)NC(=O)N[C@@H](Cc1ccccc1)C(=O)N1CCc2ccccc21 [Example 174, (S)—N-((1-(indolin-1-yl)-1-oxo-3-phenylpropan-2-yl)carbamoyl)-2-methylbenzenesulfonamide] | 1000 to 10000 nM | 3840 nM |
| CCN(C(=O)[C@H](Cc1ccccc1)NC(=O)NS(=O)(=O)c1ccccc1C)c1ccc(C)c(C)c1 [Example 175, (S)—N-(3,4-dimethylphenyl)-N-ethyl-3-phenyl-2-(3-(o-tolylsulfonyl)ureido)propanamide] | < 100 nM | – |
| Cc1ccccc1S(=O)(=O)NC(=O)N[C@@H](Cc1ccccc1)C(=O)N(C)c1nc2ccccc2s1 [Example 176, (S)—N-(benzo[d]thiazol-2-yl)-N-methyl-3-phenyl-2-(3-(o-tolylsulfonyl)ureido)propanamide] | 10000 to 100000 nM | – |
| CCN(C(=O)[C@H](Cc1ccccc1)NC(=O)NS(=O)(=O)c1ccccc1C)c1ccc2ccccc2c1 [Example 177, (S)—N-ethyl-N-(naphthalen-2-yl)-3-phenyl-2-(3-(o-tolylsulfonyl)ureido)propanamide] | < 100 nM | – |
| CCN(C(=O)[C@H](Cc1ccccc1)NC(=O)NS(=O)(=O)c1ccccc1C)c1ccc(OC(F)(F)F)cc1 [Example 178, (S)—N-ethyl-3-phenyl-2-(3-(o-tolylsulfonyl)ureido)-N-(4-(trifluoromethoxy)phenyl)propanamide] | < 100 nM | 80 nM |
| Cc1ccccc1S(=O)(=O)NC(=O)N[C@@H](Cc1ccccc1)C(=O)N(C)C1CCCCC1 [Example 179, (S)—N-cyclohexyl-N-methyl-3-phenyl-2-(3-(o-tolylsulfonyl)ureido)propanamide] | 1000 to 10000 nM | – |
| Cc1ccccc1S(=O)(=O)NC(=O)N[C@@H](Cc1ccccc1)C(=O)N(C)Cc1ccccn1 [Example 180, (S)—N-methyl-3-phenyl-N-(pyridin-2-ylmethyl)-2-(3-(o-tolylsulfonyl)ureido)propanamide] | 1000 to 10000 nM | – |
| CCN(C(=O)[C@H](Cc1ccccc1)NC(=O)NS(=O)(=O)c1ccccc1C)c1ccc(Cl)cc1 [Example 181, (S)—N-(4-chlorophenyl)-N-ethyl-3-phenyl-2-(3-(o-tolylsulfonyl)ureido)propanamide] | 100 to 1000 nM | – |
| CCN(C(=O)[C@H](Cc1ccccc1)NC(=O)NS(=O)(=O)c1ccccc1C)c1ccc(Cl)c(C(F)(F)F)c1 [Example 182, (S)—N-(4-chloro-3-(trifluoromethyl)phenyl)-N-ethyl-3-phenyl-2-(3-(o-tolylsulfonyl)ureido)propanamide] | 100 to 1000 nM | – |
| CCCN(C(=O)[C@H](Cc1ccccc1)NC(=O)NS(=O)(=O)c1ccccc1C)c1ccc(Cl)c(Cl)c1 [Example 183, (S)—N-(3,4-dichlorophenyl)-3-phenyl-N-propyl-2-(3-(o-tolylsulfonyl)ureido)propanamide] | 100 to 1000 nM | 310 nM |
| CCN(C(=O)[C@H](Cc1ccccc1)NC(=O)NS(=O)(=O)c1ccccc1C)c1ccc(OC)cc1 [Example 184, (S)—N-ethyl-N-(4-methoxyphenyl)-3-phenyl-2-(3-(o-tolylsulfonyl)ureido)propanamide] | < 100 nM | – |
| Cc1ccccc1S(=O)(=O)NC(=O)N[C@@H](Cc1ccccc1)C(=O)N1CCc2cc(S(=O)(=O)N(C)C)ccc21 [Example 185, (S)—N,N-dimethyl-1-(3-phenyl-2-(3-(o-tolylsulfonyl)ureido)propanoyl)indoline-5-sulfonamide] | 1000 to 10000 nM | – |
| Cc1ccccc1S(=O)(=O)NC(=O)N[C@@H](Cc1ccccc1)C(=O)N1CCc2sccc2C1 [Example 186, (S)—N-((1-(6,7-dihydrothieno[3,2-c]pyridin-5(4H)-yl)-1-oxo-3-phenylpropan-2-yl)carbamoyl)-2-methylbenzenesulfonamide] | 1000 to 10000 nM | 3590 nM |

| SMILES | EC50 [1] | EC50 [2] |
| --- | --- | --- |
| Cc1ccccc1S(=O)(=O)NC(=O)N[C@@H](Cc1ccccc1)C(=O)N1C[C@@H]2C[C@H]1CO2 [Example 187, N—(((S)-1-((1S,4S)-2-oxa-5-azabicyclo[2.2.1]heptan-5-yl)-1-oxo-3-phenylpropan-2-yl)carbamoyl)-2-methylbenzenesulfonamide] | – | > 33300 nM |
| Cc1ccccc1S(=O)(=O)NC(=O)N[C@@H](Cc1ccccc1)C(=O)N1CCC1 [Example 188, (S)—N-((1-(azetidin-1-yl)-1-oxo-3-phenylpropan-2-yl)carbamoyl)-2-methylbenzenesulfonamide] | 10000 to 100000 nM | 27500 nM |
| Cc1ccccc1S(=O)(=O)NC(=O)N[C@@H](Cc1ccccc1)C(=O)N1CCCC1c1cccnc1 (stereo partly drawn) [Example 189, 2-methyl-N-(((2S)-1-oxo-3-phenyl-1-(2-(pyridin-3-yl)pyrrolidin-1-yl)propan-2-yl)carbamoyl)benzenesulfonamide] | 1000 to 10000 nM | – |
| COc1ccc(N(C)C(=O)[C@H](Cc2ccccn2)NC(=O)NS(=O)(=O)c2ccccc2C)cc1 [Example 192, (S)—N-(4-methoxyphenyl)-N-methyl-3-(pyridin-2-yl)-2-(3-(o-tolylsulfonyl)ureido)propanamide] | 10000 to 100000 nM | – |
| COc1ccc(N(C)C(=O)[C@H](Cn2cncn2)NC(=O)NS(=O)(=O)c2ccccc2C)cc1 [Example 193, (S)—N-(4-methoxyphenyl)-N-methyl-2-(3-(o-tolylsulfonyl)ureido)-3-(1H-1,2,4-triazol-1-yl)propanamide] | – | > 100000 nM |
| COc1ccc(N(C)C(=O)[C@H](Cc2cccnc2)NC(=O)NS(=O)(=O)c2ccccc2C)cc1 [Example 194, (S)—N-(4-methoxyphenyl)-N-methyl-3-(pyridin-3-yl)-2-(3-(o-tolylsulfonyl)ureido)propanamide] | 10000 to 100000 nM | – |
| COc1ccc(N(C)C(=O)[C@H](CC2CCCCC2)NC(=O)NS(=O)(=O)c2ccccc2C)cc1 [Example 195, (S)-3-cyclohexyl-N-(4-methoxyphenyl)-N-methyl-2-(3-(o-tolylsulfonyl)ureido)propanamide] | 1000 to 10000 nM | – |
| COc1ccc(N(C)C(=O)[C@H](CC2CCCC2)NC(=O)NS(=O)(=O)c2ccccc2C)cc1 [Example 196, (S)-3-cyclopentyl-N-(4-methoxyphenyl)-N-methyl-2-(3-(o-tolylsulfonyl)ureido)propanamide] | 10000 to 100000 nM | – |
| COc1ccc(N(C)C(=O)[C@@H](NC(=O)NS(=O)(=O)c2ccccc2C)[C@@H](C)c2ccccc2)cc1 [Example 197, (2S,3S)—N-(4-methoxyphenyl)-N-methyl-3-phenyl-2-(3-(o-tolylsulfonyl)ureido)butanamide] | 10000 to 100000 nM | 11500 nM |
| COc1ccc(N(C)C(=O)[C@H](Cc2cccs2)NC(=O)NS(=O)(=O)c2ccccc2C)cc1 [Example 198, (S)—N-(4-methoxyphenyl)-N-methyl-3-(thiophen-2-yl)-2-(3-(o-tolylsulfonyl)ureido)propanamide] | 100 to 1000 nM | 270 nM |
| COc1ccc(N(C)C(=O)[C@H](Cc2ccncc2)NC(=O)NS(=O)(=O)c2ccccc2C)cc1 [Example 199, (S)—N-(4-methoxyphenyl)-N-methyl-3-(pyridin-4-yl)-2-(3-(o-tolylsulfonyl)ureido)propanamide] | 10000 to 100000 nM | – |
| COc1ccc(N(CC(F)(F)F)C(=O)[C@H](Cc2ccccc2)NC(=O)NS(=O)(=O)c2ccccc2C)cc1 [Example 200, (S)—N-(4-methoxyphenyl)-3-phenyl-2-(3-(o-tolylsulfonyl)ureido)-N-(2,2,2-trifluoroethyl)propanamide] | 100 to 1000 nM | – |
| CCN(C(=O)[C@H](Cc1ccccc1)NC(=O)NS(=O)(=O)c1ccccc1Br)c1ccc(OC)cc1 [Example 201, (S)-2-(3-((2-bromophenyl)sulfonyl)ureido)-N-ethyl-N-(4-methoxyphenyl)-3-phenylpropanamide] | < 100 nM | – |
| CCN(C(=O)[C@H](Cc1ccccc1)NC(=O)NS(=O)(=O)c1ccc2c(ccn2CC)c1)c1ccc(OC)cc1 [Example 203, (S)—N-ethyl-2-(3-((1-ethyl-1H-indol-5-yl)sulfonyl)ureido)-N-(4-methoxyphenyl)-3-phenylpropanamide] | 100 to 1000 nM | – |
| COc1ccc(N(C)C(=O)[C@H](Cc2cc(F)cc(F)c2)NC(=O)NS(=O)(=O)c2ccccc2F)cc1 [Example 204, (S)-3-(3,5-difluorophenyl)-2-(3-((2-fluorophenyl)sulfonyl)ureido)-N-(4-methoxyphenyl)-N-methylpropanamide] | 100 to 1000 nM | – |
| COc1ccc(N(C)C(=O)[C@H](Cc2cc(F)cc(F)c2)NC(=O)NS(=O)(=O)c2ccccc2C)cc1 [Example 205, (S)-3-(3,5-difluorophenyl)-N-(4-methoxyphenyl)-N-methyl-2-(3-(o-tolylsulfonyl)ureido)propanamide] | 100 to 1000 nM | 110 nM |
| CN(C(=O)[C@H](Cc1ccccc1)NC(=O)NS(=O)(=O)c1ccccc1Cl)c1ccc2c(c1)CCC2 [Example 206, (S)-2-(3-((2-chlorophenyl)sulfonyl)ureido)-N-(2,3-dihydro-1H-inden-5-yl)-N-methyl-3-phenylpropanamide] | < 100 nM | – |
